Laboratory results reported in article PMC12692861, “Biotin-Linked Ursolic Acid Conjugates as Selective Anticancer Agents and Target-Identification Tools for Cancer Therapy” (Molecules, 2025).

Biological target: RNA-binding protein 39 (RBM39) (Homo sapiens, UniProt Q14498)
Test: Streptavidin pulldown proteomics (LC-MS/MS), 5637 cells
Details: 5637, 50 µM
Description: We used proteomics to identify potential molecular targets of 5c. A pulldown assay with streptavidin-agarose-coated magnetic beads was performed. Briefly, 5637 and MB49 cells were incubated with 50 µM 5c for 10 min and 1 h. After incubation, the cells were rinsed three times with cold phosphate-buffered saline (PBS), and cell lysates were prepared and clarified by centrifugation to remove cellular debris, including nuclei. The clarified lysates were incubated with streptavidin-coated magnetic beads to selectively bind biotinylated contents. Bound proteins were separated from unbound proteins through thorough bead washing. Proteins attached to the beads were eluted and analyzed on an Orbitrap Fusion Tribrid mass spectrometer (Thermo Scientific, New York, NY, USA) coupled with an Ultimate 3000 nano-UPLC system. Samples were trapped on a PepMap100 C18 trap column (5 µm, 0.3 × 5 mm) and separated on a PepMap RSLC C18 column (2 µm, 75 µm × 150 mm) using a gradient from 2 to 40% acetonitrile with 0.1% formic acid over 120 min at […] and 40 °C. MS data were acquired in positive mode using data-dependent acquisition (DDA), with precursor scans at 120,000 FWHM (400–2000 m/z), and MS/MS scans in top-speed mode (3 s cycle) using HCD fragmentation (NCE 32%). Proteins were identified and quantified based on peptide spectral matches (PSMs), and fold enrichment compared to controls was calculated to evaluate interaction strength.
The 5637 and MB49 cells were cultured and treated with higher concentrations of 5c (50 µM) for short period of times (10 min & 60 min) followed by whole cell lysis (WCL) preparation of both treated and untreated cells using modified RIPA buffer [NaCl (100mM), TrisCl (20mM, pH 7.4), EDTA (10 mM), TritonX-100 (0.5%), Glycerol (5%), Protease inhibitor cocktail (1x)] with gentle continuous rotation. The protein content of each WCL was estimated using Pierce™ BCA Protein Assay kit (Thermo-Scientific # 23225). The 100 µL of resuspended Dynabeads™ MyOne™ Streptavidin C1 (Invitrogen # 65001) were washed with PBST (PBS with 0.01% Tween™20) in a magnet stand as recommended in the manufacturer’s instructions. The washed beads were incubated with 200 µg of each WCL in separate tubes at room temperature for 2 h in a gentle end-over-end mixing. After incubation, beads were washed 3–5 times with PBST (0.01% Tween-20) on a magnetic stand and beads were decanted by after spinning and magnetization. The samples were stored at −80 °C till further analysis using LC-MS/MS by the Proteomics and Mass Spectrometry Core Laboratory of Augusta University.

RNA-binding protein 39 (RBM39), sequence (Q14498 whole entry): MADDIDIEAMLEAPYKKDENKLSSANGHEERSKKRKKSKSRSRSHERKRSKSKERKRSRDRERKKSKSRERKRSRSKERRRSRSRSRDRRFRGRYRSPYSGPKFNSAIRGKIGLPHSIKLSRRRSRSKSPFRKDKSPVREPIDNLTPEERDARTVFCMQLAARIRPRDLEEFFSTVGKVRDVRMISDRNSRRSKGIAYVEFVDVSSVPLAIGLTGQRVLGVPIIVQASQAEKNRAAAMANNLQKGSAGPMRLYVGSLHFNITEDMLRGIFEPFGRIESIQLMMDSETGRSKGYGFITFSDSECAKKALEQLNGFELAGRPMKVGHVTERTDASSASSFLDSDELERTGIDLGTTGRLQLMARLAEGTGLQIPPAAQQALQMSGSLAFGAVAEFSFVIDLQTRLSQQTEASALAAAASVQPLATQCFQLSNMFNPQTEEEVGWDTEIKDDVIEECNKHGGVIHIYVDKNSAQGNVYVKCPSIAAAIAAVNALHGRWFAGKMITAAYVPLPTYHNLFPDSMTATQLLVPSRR

Structure (SMILES): CC1CCC2(C(=O)OCCCCOC(=O)CCCCC3SCC4NC(=O)NC43)CCC3(C)C(=CCC4C5(C)CCC(O)C(C)(C)C5CCC43C)C2C1C [Compound 5c, 4-((5-((3aS,4S,6aR)-2-Oxohexahydro-1H-thieno [3,4-d]imidazol-4-yl)pentanoyl)oxy) butyl 3-hydroxy-urs-12-en-28-oate]
- Fold Change 10 min/Ctrl: 3.5
- Fold Change 1 h/Ctrl: 3
